Assay [1] has as its target T1, His tagged FSP1 (WT) protein (Homo sapiens, UniProt Q9BRQ8).
T1 construct: made in house; host or cells: E. coli LOBSTR-BL21 (DE3)
T1 sequence (Q9BRQ8 1-373): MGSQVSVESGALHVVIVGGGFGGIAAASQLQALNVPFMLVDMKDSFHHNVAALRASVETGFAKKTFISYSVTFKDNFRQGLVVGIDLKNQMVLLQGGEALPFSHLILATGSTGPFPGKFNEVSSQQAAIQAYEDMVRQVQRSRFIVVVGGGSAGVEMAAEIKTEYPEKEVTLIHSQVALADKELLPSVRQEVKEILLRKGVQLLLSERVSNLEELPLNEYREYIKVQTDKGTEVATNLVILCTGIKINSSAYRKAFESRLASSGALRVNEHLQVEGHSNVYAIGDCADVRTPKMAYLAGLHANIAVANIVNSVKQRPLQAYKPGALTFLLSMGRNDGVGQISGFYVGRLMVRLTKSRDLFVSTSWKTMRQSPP
The experiment in a line: in vitro FSP1 activity assay (NADH oxidation during CoQ1 reduction, 355 nm absorbance). Conditions: inhibition of FSP1 Coenzyme Q1 oxidoreductase activity in vitro. It is filed as biochemical. On the procedure: For small molecule drug screen, 0.5 μL of compounds were stamped into 384 well NBS plates (Corning) in dose response diluted 2-fold with a high of 2 mM. 60 mL of purified His tagged FSP1 (WT) protein at 50 nM was prepared and 12.5 μL of this protein solution was aliquoted into 384 well NBS-plates (Corning) containing compound and allowed to incubate for 30 min at room temperature. After 30 min incubation 12.5 μL of reaction buffer (1 mM NADH, 800 µM CoQ1) was added into the 384 well NBS-plates containing protein and compounds for a final concentration of 25 nM His tagged FSP1 (WT) protein, 500 µM NADH (Sigma-Aldrich) and 400 µM CoQ1 (Sigma-Aldrich). Each well contained a 25 μL mixture and 40 µM compound in the primary screen. […] Measurements were taken at 355 nm with a EnVision 2104 multilabel plate reader (PerkinElmer). […] Compounds with confirmed data that have normalized absorbance values of less than 0.164 were chosen for dose response. […]
To measure NADH oxidation kinetics, 25 nM recombinant FSP1 was combined with 500 µM NADH and C400 µM Coenzyme Q1 in a total volume of 100 μl PBS. The change in absorbance at 355 nm, corresponding to NADH oxidation, was determined over the course of 4 h. All measurements were taken using a SpectraMax i3 Multi-Mode Platform plate reader (Molecular Devices). […]

The test system of assay [2] is H460^C Cas9 cells. The experiment in a line: cell-based assay, cell death in control cells. On the procedure:
For cell-based screen, cells were seeded in triplicate at a density of 500-750 cells per 50 μL per well in black 384-well plates (NUNC) and (Corning) 24 hr before start of imaging. After 24 hr, an additional 50 μL of drug infused medium containing 30 nM SYTOX Green Dead Cell Stain was carefully placed into the wells on top of existing medium. The plates were immediately transferred to an IncuCyte S3 imaging system (Essen Bioscience) enclosed in an incubator set to 37° C. and 5% CO2. One image per well were captured in the phase, green, and red channels every 1.5 or 3 hr over a 24 hr period, and the ratio of SYTOX Green-positive objects (dead cells) to SYTOX Green-positive plus Sg-SAFE mCherry-positive objects (total cells) was quantified using S3 image analysis software (Essen Bioscience). For each treatment condition, the SYTOX-to-′SYTOX+mCherry′-object ratio was plotted against the 24 hr imaging interval, the Area Under the Curve (AUC) was calculated and the average AUC was plotted using Prism (GraphPad). To calculate the half-maximal effective concentration (EC50) values, the AUC curve was fit to a variable slope function comparing response to drug concentration. […]
Employing this assay, the amount of cell death induced by 168 FSP1 inhibitors in the H460^C Cas9 and H460^C GPX4^KO cells was assessed. […]

Assay [3] relates to H460^C GPX4^KO cells. The experiment in a line: cell-based assay of FSP1 activity, cell death (SYTOX Green/mCherry lethal fraction). On the procedure:
For cell-based screen, cells were seeded in triplicate at a density of 500-750 cells per 50 μL per well in black 384-well plates (NUNC) and (Corning) 24 hr before start of imaging. After 24 hr, an additional 50 μL of drug infused medium containing 30 nM SYTOX Green Dead Cell Stain was carefully placed into the wells on top of existing medium. The plates were immediately transferred to an IncuCyte S3 imaging system (Essen Bioscience) enclosed in an incubator set to 37° C. and 5% CO2. One image per well were captured in the phase, green, and red channels every 1.5 or 3 hr over a 24 hr period, and the ratio of SYTOX Green-positive objects (dead cells) to SYTOX Green-positive plus Sg-SAFE mCherry-positive objects (total cells) was quantified using S3 image analysis software (Essen Bioscience). For each treatment condition, the SYTOX-to-′SYTOX+mCherry′-object ratio was plotted against the 24 hr imaging interval, the Area Under the Curve (AUC) was calculated and the average AUC was plotted using Prism (GraphPad). To calculate the half-maximal effective concentration (EC50) values, the AUC curve was fit to a variable slope function comparing response to drug concentration.
In addition to the in vitro activity assay, an orthogonal cell-based assay of FSP1 activity was also developed. […]

Results on one compound are retold here after patent US20250161297A1, “COMPOSITIONS AND METHODS FOR INHIBITING FSP1” (THE REGENTS OF THE UNIVERSITY OF CALIFORNIA, priority 2022, published 2025).

Entries after “also recorded” stand apart in the source; their conditions may differ.

In turn, `Cc1ccc(-c2c(C#N)c(N)n3c(nc4ccccc43)c2C#N)cc1` [iFSP1] displayed an IC50 in assay [1] of 4.01 µM. The “cell death in H460^C Cas9 cells” value in assay [2] is “but not in the H460^C Cas9 cells”. Besides, the “cell death in H460^C GPX4^KO cells” value in assay [3] is listed as “sufficient to trigger ferroptosis; also recorded: selectively triggered cell death”.
